In USRE39591E1, “6-O-substituted ketolides having antibacterial activity” (Abbott Laboratories, priority 1996, dated 2007):
≈ marks a conversion by molar mass, not a printed value.

Test system: up to 32 different microorganisms
Assay: in vitro antibacterial activity (MIC), agar dilution on Brain Heart Infusion (BHI) agar with Steers replicator
Assay type: cell-based
Conditions: unit assumed
Description: Representative compounds of the present invention were assayed in vitro for antibacterial activity as follows: Twelve petri dishes containing successive aqueous dilutions of the test compound mixed with 10 mL of sterilized Brain Heart Infusion (BHI) agar (Difco 0148-01-5) were prepared. Each plate was inoculated with 1:100 (or 1:10 for slow-growing strains, such as Micrococcus and Streptococcus) dilutions of up to 32 different microorganisms, using a Steers replicator block. The inoculated plates were incubated at 35°-37° C. for 20 to 24 hours. In addition, a control plate, using BHI agar containing no test compound, was prepared and incubated at the beginning and end of each test.
An additional plate containing a compound having known susceptibility patterns for the organisms being tested and belonging to the same antibiotic class as the test compound was also prepared and incubated as a further control, as well as to provide test-to-test comparability. Erythromycin A was used for this purpose.
After incubation, each plate was visually inspected. The minimum inhibitory concentration (MIC) was defined as the lowest concentration of drug yielding no growth, a slight haze, or sparsely isolated colonies on the inoculum spot as compared to the growth control.

[1] = Candida albicans CCH 442 (code TT)
[2] = Enterococcus faecism ATCC 8043 (code II)
[3] = Escherichia coli DC-2 (code SS)
[4] = Escherichia coli JUHL (code QQ)
[5] = Haemophilis influenzae DILL AMP R (code WW)
[6] = Micrococcus luteus ATCC 4698 (code PP)
[7] = Micrococcus luteus ATCC 9341 (code OO)
[8] = Mycobacterium smegmatis ATCC 114 (code UU)
[9] = Nocardia Asteroides ATCC9970 (code VV)
[10] = Staphylococcus aureus 1775 (code GG)
[11] = Staphylococcus aureus A5177 (code BB)
[12] = Staphylococcus aureus A-5278 (code CC)
[13] = Staphylococcus aureus ATCC 6538P (code AA)
[14] = Staphylococcus aureus CMX 553 (code FF)
[15] = Staphylococcus aureus CMX 642A (code DD)
[16] = Staphylococcus aureus NCTC10649M (code EE)
[17] = Staphylococcus epidermidis 3519 (code HH)
[18] = Streptococcus Pneumonia 5649 (code ZZA)
[19] = Streptococcus Pneumonia 5979 (code ZZ)
[20] = Streptococcus Pneumonia ATCC6303 (code XX)
[21] = Streptococcus Pneumonia GYR 1171 (code YY)
[22] = Streptococcus agalactiae CMX 508 (code KK)
[23] = Streptococcus bovis A-5169 (code JJ)
[24] = Streptococcus pyogenes 930 (code MM)
[25] = Streptococcus pyogenes EES61 (code LL)
[26] = Streptococcus pyogenes PIU 2548 (code NN)

| Structure (SMILES) | MIC [1] [µg/mL] | MIC [2] [µg/mL] | MIC [3] [µg/mL] | MIC [4] [µg/mL] | MIC (Escherichia coli SS (code RR)) [µg/mL] | MIC [5] [µg/mL] | MIC [6] [µg/mL] | MIC [7] [µg/mL] | MIC [8] [µg/mL] | MIC [9] [µg/mL] | MIC [10] [µg/mL] | MIC [11] [µg/mL] | MIC [12] [µg/mL] | MIC [13] [µg/mL] | MIC [14] [µg/mL] | MIC [15] [µg/mL] | MIC [16] [µg/mL] | MIC [17] [µg/mL] | MIC [18] [µg/mL] | MIC [19] [µg/mL] | other results |
| --- | --- | --- | --- | --- | --- | --- | --- | --- | --- | --- | --- | --- | --- | --- | --- | --- | --- | --- | --- | --- | --- |
| CCC1OC(=O)C(C)C(=O)C(C)C(OC2OC(C)CC(N(C)C)C2O)C(C)(OCC=Cc2cnc3ccccc3c2)CC(C)C(=O)C(C)C2N(CCN(C)C)C(=O)OC12C (stereo not drawn) [Example 182, Compound of Formula (IX): L is CO, T is N (CH2CH2N(CH3)2), R is —CH2CH═CH(3-quinolyl)] | > 100 | 0.1 | > 100 | > 100 | 0.39 | 8 | 0.39 | 0.02 | 0.39 | 0.2 | > 100 | 0.2 | > 100 | 0.39 | 0.39 | 0.39 | 0.39 | 0.78 | 2 | > 128 | MIC [20]: 0.125 µg/mL; MIC [21]: 0.25 µg/mL; MIC [22]: 0.05 µg/mL; MIC [23]: 0.01 µg/mL; MIC [24]: 100 µg/mL; MIC [25]: 0.01 µg/mL; MIC [26]: 0.39 µg/mL |
| C=CCOC1(C)CC(C)C(=O)C(C)C2N(CC=C)C(=O)OC2(C)C(CC)OC(=O)C(C)C(=O)C(C)C1OC1OC(C)CC(N(C)C)C1O (stereo not drawn) [Example 183, Compound of Formula (IX): L is CO, T is N (CH2CH═CH2), R is —CH2CH═CH2] | > 100 | 3.1 | > 100 | > 100 | 25 | > 128 | 25 | 6.2 | > 100 | 1.56 | > 100 | 25 | > 100 | 25 | 25 | 25 | 25 | 25 | 2 | > 128 | MIC [20]: 2 µg/mL; MIC [21]: 2 µg/mL; MIC [22]: 1.56 µg/mL; MIC [23]: 0.78 µg/mL; MIC [24]: > 100 µg/mL; MIC [25]: 1.56 µg/mL; MIC [26]: 3.1 µg/mL |
| CCC1OC(=O)C(C)C(=O)C(C)C(OC2OC(C)CC(N(C)C)C2O)C(C)(OCC=Cc2cnc3ccccc3c2)CC(C)C(=O)C(C)C2N(CC=Cc3cnc4ccccc4c3)C(=O)OC12C (stereo not drawn) [Example 184, Compound of Formula (IX): L is CO, T is T is N (CH2CH═CH-(3-quinolyl)), R is —CH2CH═CH-(3-quinolyl)] | > 100 | 0.2 | > 100 | > 100 | 12.5 | > 128 | 0.78 | 0.39 | 6.2 | 3.1 | > 100 | 1.56 | > 100 | 3.1 | 1.56 | 3.1 | 3.1 | 3.1 | 2 | 32 | MIC [20]: 1 µg/mL; MIC [21]: 0.5 µg/mL; MIC [22]: 0.1 µg/mL; MIC [23]: 0.1 µg/mL; MIC [24]: 25 µg/mL; MIC [25]: 0.1 µg/mL; MIC [26]: 1.56 µg/mL |
| CCC1OC(=O)C(C)C(=O)C(C)C(OC2OC(C)CC(N(C)C)C2O)C(C)(OCC=Cc2cccnc2)CC(C)C(=O)C(C)C2NC(=O)OC12C (stereo not drawn) [Example 185, R is —CH2CH═CH-(3-pyridyl)] | > 100 | 0.05 (≈ 0.0698 µM) | 100 (≈ 140 µM) | 100 (≈ 140 µM) | 0.39 (≈ 0.545 µM) | 1 (≈ 1.4 µM) | 0.1 (≈ 0.14 µM) | 0.01 (≈ 0.014 µM) | 3.1 (≈ 4.33 µM) | 0.1 (≈ 0.14 µM) | > 100 | 0.1 (≈ 0.14 µM) | > 100 | 0.1 (≈ 0.14 µM) | 0.1 (≈ 0.14 µM) | 0.1 (≈ 0.14 µM) | 0.1 (≈ 0.14 µM) | 0.1 (≈ 0.14 µM) | 0.5 (≈ 0.698 µM) | > 128 | MIC [20]: 0.03 µg/mL (≈ 0.0419 µM); MIC [21]: 0.03 µg/mL (≈ 0.0419 µM); MIC [22]: 0.01 µg/mL (≈ 0.014 µM); MIC [23]: ≤ 0.005 µg/mL; MIC [24]: > 100 µg/mL; MIC [25]: 0.01 µg/mL (≈ 0.014 µM); MIC [26]: 0.2 µg/mL (≈ 0.279 µM) |
